Assay results from PubChem BioAssay (NCI).
“And” between values parts separate entries of the source, which are not always exact repeats. Equal values may be shown once.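 96-well plates; 48 h exposure; 5 concentrations. Endpoints by linear interpolation between flanking doses. Not reached: highest tested concentration assigned. Abbreviation: GI50, concentration required for 50% inhibition of growth. TGI marks complete inhibition of growth.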

Experiments:
Assay in all cases: NCI tumour cell line growth inhibition, 48 h
HL-60(TB) leukemia = test system: HL-60(TB) leukemia
HOP-92 NSCLC = test system: HOP-92 NSCLC
IGROV1 ovarian = test system: IGROV1 ovarian
NCI-H522 lung = test system: NCI-H522 lung
RPMI-8226 leukemia = test system: RPMI-8226 leukemia
SF-295 CNS = test system: SF-295 CNS
SN12C renal = test system: SN12C renal
SR leukemia = test system: SR leukemia
HS 578T breast = test system: HS 578T breast
MDA-MB-435 = test system: MDA-MB-435

SMILES | TGI (HL-60(TB) leukemia) | TGI (HOP-92 NSCLC) | TGI (IGROV1 ovarian) | TGI (NCI-H522 lung) | TGI (RPMI-8226 leukemia) | TGI (SF-295 CNS) | TGI (SN12C renal) | TGI (SR leukemia) | TGI (HS 578T breast) | TGI (MDA-MB-435) | GI50 (HOP-92 NSCLC) | GI50 (IGROV1 ovarian) | GI50 (NCI-H522 lung) | GI50 (RPMI-8226 leukemia) | GI50 (SF-295 CNS) | GI50 (SN12C renal) | GI50 (HL-60(TB) leukemia) | GI50 (HS 578T breast) | GI50 (SR leukemia)
Cc1cccc(-c2cc(=O)c3cc(C)cnc3[nH]2)c1 | 0.355 µM | > 100 µM | > 100 µM | 0.259 µM | 30.1 µM | 0.609 µM | > 94.6 µM | 1.7 µM | – | – | – | – | – | – | – | – | – | – | –
O=c1cc(-c2ccccc2)[nH]c2c(F)ccc(F)c12 | > 100 µM | > 100 µM | > 100 µM | > 100 µM | > 100 µM | > 100 µM | > 100 µM | 90.3 µM | – | – | – | – | – | – | – | – | – | – | –
COc1cc2c3c4[n+](cc2c(OC)c1OC)CCC4CCC3 (stereo not drawn) | – | > 100 µM | > 100 µM | > 100 µM | > 100 µM | > 100 µM | > 100 µM | > 100 µM | > 100 µM | > 100 µM | – | – | – | – | – | – | – | – | –
COc1cccc2c1C(=O)c1c(O)c3c(c(O)c1C2=O)C[C@@](O)(C(=O)CO)CC3OC1CC(NCCCCC(OC(C)=O)OC(C)=O)C(O)C(C)O1 (stereo partly drawn) | 0.00428 µM | 0.00682 µM and 0.0079 µM | > 1 µM | 0.00344 µM and 0.00513 µM | 0.00313 µM | 0.0335 µM | > 1 µM | 0.0027 µM | – | – | 0.00286 µM | 0.00355 µM | 0.00125 µM | 0.000528 µM | 0.00227 µM | 0.000935 µM | – | – | –
C/C(=N\Nc1nc2ccccc2n1C)c1ccncn1 | 0.0439 µM | 2.64 µM | – | > 31.4 µM | – | > 100 µM | > 100 µM | > 100 µM | > 100 µM | – | – | – | – | – | – | – | – | – | –
COc1ccc(Nc2ccnc3cc(Cl)ccc23)cc1CN(CCCl)CCCl | 3.96 µM | 5.53 µM | 4.19 µM | – | 4.85 µM | 3.31 µM | 6 µM | 0.699 µM | > 100 µM | – | 1.17 µM | 1.31 µM | – | 1.15 µM | 0.804 µM | 1.24 µM | 0.944 µM | 3.14 µM | 0.158 µM
C/C(=N/OCCC(=O)O)C1CC1 | > 100 µM | > 100 µM | > 100 µM | > 100 µM | > 100 µM | > 100 µM | > 100 µM | > 100 µM | – | – | – | – | – | – | – | – | – | – | –
CCC(C)Cn1c(C)nc2c1C(=O)c1ccccc1C2=O (stereo not drawn) | 28.5 µM | 78.9 µM | > 100 µM | > 100 µM | – | > 100 µM | > 100 µM | > 100 µM | – | – | – | – | – | – | – | – | – | – | –
CCCCCC(=O)OCC1(CO)C/C(=C/CC(C(C)C)C(C)C)C(=O)O1 (stereo not drawn) | – | > 75 µM | 37.2 µM | 27.7 µM | – | > 75 µM | > 75 µM | – | > 75 µM | > 75 µM | – | – | – | – | – | – | – | – | –
CN(C)CCSc1nccc(-c2ccc(-c3ccnc(SCCN(C)C)n3)s2)n1 | 6.01 µM | 28.1 µM | 28.8 µM | 33.5 µM | 10.1 µM | 26 µM | 21 µM | – | – | – | – | – | – | – | – | – | – | – | –
C/C(=C\c1ccccc1)n1c(=O)cc(C)n1C | – | > 100 µM | > 100 µM | – | > 100 µM | > 100 µM | > 100 µM | – | > 100 µM | > 100 µM | – | – | – | – | – | – | – | – | –
CC(C)(C)C1=CC(O)(c2c3ccccc3c(C3(O)C=C(C(C)(C)C)C(=O)C(C(C)(C)C)=C3)c3ccccc23)C=C(C(C)(C)C)C1=O | – | 0.028 µM | > 100 µM | > 100 µM | > 100 µM | > 100 µM | > 100 µM | – | > 100 µM | 0.0354 µM | – | – | – | – | – | – | – | – | –
CC(C)c1cc(C(C)C)c(B(c2ccccc2)c2ccccc2)c(C(C)C)c1Br | > 100 µM | > 100 µM | > 100 µM | > 100 µM | – | > 100 µM | > 100 µM | > 100 µM | > 100 µM | > 100 µM | – | – | – | – | – | – | – | – | –
Cc1cc(C)c(N)c(CO)c1 | – | > 100 µM | 33.3 µM and 46.9 µM | > 100 µM | > 100 µM | > 100 µM | > 100 µM | > 100 µM | > 100 µM | > 100 µM | – | 4.25 µM and 10.2 µM | > 100 µM and 42.5 µM | – | – | – | – | – | –
CCOC(=O)c1sc2[n+](c1C)C(=O)/C(=C/c1ccccc1Cl)S2 | > 62.9 µM | – | 23.3 µM | 7.65 µM | 15.7 µM | 4.75 µM | > 100 µM | 17 µM | > 73.3 µM | > 100 µM | – | – | – | – | – | – | – | – | –
COc1ccc(Cn2nc(OCc3ccccc3)c3cc([N+](=O)[O-])ccc32)cc1 | > 100 µM | – | > 100 µM | > 100 µM | > 100 µM | > 100 µM | > 100 µM | > 100 µM | > 100 µM | > 100 µM | – | – | – | – | – | – | – | – | –
COc1ccc(-c2nc3ncccn3c2-c2ccc(S(C)(=O)=O)cc2)cc1 | > 100 µM | > 100 µM | > 100 µM | – | > 100 µM | > 100 µM | > 100 µM | > 100 µM | > 100 µM | > 100 µM | – | – | – | – | – | – | – | – | –
CCN(CC)CCC1(C(=O)OC)SCCc2ccc(C)cc21 (stereo not drawn) | – | > 100 µM | > 100 µM | > 100 µM | > 100 µM | > 100 µM | > 100 µM | > 100 µM | > 100 µM | > 100 µM | – | – | – | – | – | – | – | – | –
CC1=CCC(=O)[C@]2(C)C(CC(=O)O)[C@]3(C)C4=C(C)C(c5ccoc5)C[C@@H]4O[C@@H]3[C@H](O)[C@@H]12 (stereo partly drawn) | > 100 µM | > 100 µM | > 100 µM | > 100 µM | > 100 µM | > 100 µM | > 100 µM | – | > 100 µM | > 100 µM | – | – | – | – | – | – | – | – | –
N#CC(NNC(=O)c1c(Cl)c(Cl)c(Cl)c(Cl)c1-c1nc2ccc(C(=O)c3ccccc3)cc2[nH]1)c1cccc(Oc2ccccc2)c1 (stereo not drawn) | 83.6 µM | 48.3 µM | 93.1 µM | – | 91.8 µM | 96.6 µM | 67.2 µM | 54.4 µM | – | 53.6 µM | – | – | – | – | – | – | – | – | –
O=C(/C=C/c1ccc(OCCCOc2ccc(/C=C/C(=O)c3ccc(Cl)cc3)cc2)cc1)c1ccc(Cl)cc1 | > 100 µM | > 100 µM | > 100 µM | > 100 µM | > 100 µM | > 100 µM | > 100 µM | > 100 µM | – | – | – | – | – | – | – | – | – | – | –
c1ccc(C2C3=C(CCCC3)Nc3nnnn32)cc1 (stereo not drawn) | > 100 µM | – | > 100 µM | – | – | > 100 µM | > 100 µM | > 100 µM | > 100 µM | > 100 µM | – | – | – | – | – | – | – | – | –
c1ccc2c(c1)[C@@H]1O[C@@H]1[C@@]13O[C@@]21[C@H]1O[C@H]1c1ccccc13 | 41 µM | 23.4 µM | 29.3 µM | 25.4 µM | 33.7 µM | 30.1 µM | 38.2 µM | – | 28.3 µM | 28.7 µM | – | – | – | – | – | – | – | – | –
